Key:
Type in all cases: in vivo
monomer/oligomer Aβ = assay: Monomer/oligomer Aβ expression in skin tissue after oral administration (fluorescence imaging); details: 100 μg/Kg/0.1 ml twice a week, 2 months, APP/PS/Tau mouse
[1] = system: hair loss mouse model APP/PS/Tau; assay: Hair loss mouse model, oral administration, changes in appearance; details: 100 μg/Kg twice a week for 2 months
Excerpt: (§1) APP/PS/Tau was purchased as a dementia mouse model from Jackson lab (BAR HARBOR, USA), and APP/Tau female and APP/PSen1de9 purchased from Taconic (Hudson, USA) were cross-mated for 6 generations, and 4-month-old mouse models were obtained from F1.
In order to examine therapeutic effects of the benzene diamine derivative of the present disclosure on hair loss, the benzene diamine derivative was orally administered to hair loss-induced mouse models, and changes in appearance were examined. The animal model of Experimental Example 2-1 was characterized by appearance of hair loss as well as dementia symptoms. Therefore, the animal model of Experimental Example 2-1 was used as a hair loss mouse model.
The hair loss mouse models were divided into groups of 6 mice, and among the hair loss mouse models, the control group were orally administered with a phosphate buffer vehicle (PBS) for 2 months, and the experimental group was orally administered with 100 μl of N1-(pyridin-2-ylmethyl)benzene-1,4-diamine (Compound 2) at a concentration of 100 μg/Kg twice a week for 2 months. Thereafter, changes in their appearance were compared.

SOX-9 = SOX-9 expression in skin tissue after oral administration (fluorescence imaging); details: 100 μg/Kg/0.1 ml twice a week, 2 months, APP/PS/Tau mouse
Method: (§2) Accordingly, the present inventors examined whether expressions of hair growth stimulating factors, SOX-2 and SOX-9 were increased in hair loss animal models by the benzene diamine derivatives of the present disclosure. In order to examine SOX-2 and SOX-9 expressions inside skin tissues, APP/PS/Tau mouse which is a hair loss-induced mouse model was selected as a control group and C57BL6 mouse was selected as a normal group, as in Example 5. An experimental group was prepared by orally administering the control group with the benzene diamine derivative at a concentration of 100 μg/Kg/0.1 ml using a zonde twice a week. 2 months later, incision of the skin was performed under local anesthesia, and the skin tissues were fixed in 4% paraformaldehyde solution for 24 hours, and fixed in a plastic mold with O.C.T. Compound (SAKURA, USA) for cryostat sectioning. […] Thereafter, the plate was put on a slide glass and covered with a cover slide, and stored in a dark acrylic box, and fluorescence imaging was observed under a confocal microscope (LSM710, Carl Zeiss, Germany) by 405/488/565 nm laser. […]

[2] = system: dementia mouse model APP/PS/Tau; assay: Morris water maze test in dementia mouse model; details: for mean escape latency: 100 μg/kg twice a week for 2 months
Excerpt: as §1
In order to examine therapeutic effects of the benzene diamine derivative of the present disclosure on dementia, enhancement of spatial cognition and memory in dementia mouse models were investigated. For this investigation, a Morris water maze (Harvard Apparatus, USA) test was performed.
In detail, a water maze composed of a stainless steel pool with a diameter of 150 cm×a height of 60 cm and an escape platform (10 cm in diameter, 30 cm in height) was filled with water at […], and the height was 2 cm above the platform such that when a mouse sat on the escape platform, the body was allowed to come out of the water. […] Escape latency was measured as the time taken for the experimental animal to go to the escape platform when the experimental animal went to the escape platform and stayed thereon for more than 20 seconds. This test was performed three times a day, and a mean value was determined as mean escape latency. The escape latency was recorded on the computer program (Smart Video Tracking System V3.0, PanLab SL, Barcelona, Spain) by installing a camera on the ceiling above the water tank. The experiment was performed three times a day for 6 days, and at this time, the possibility of accidentally visiting the escape platform was minimized by sequentially changing the positions of the experimental animals in the water tank. In the experiment, a normal mouse, a control dementia mouse administered with a vehicle (PBS) and an experimental dementia mouse administered with 100 μg/kg of N^1-(pyridin-2-ylmethyl)benzene-1,4-diamine (Compound 2) twice a week for 2 months were used after completing administration.

SOX-2 = SOX-2 expression in skin tissue after oral administration (fluorescence imaging); details: 100 μg/Kg/0.1 ml twice a week, 2 months, APP/PS/Tau mouse
Method: as §2

## N^1-(pyridin-2-ylmethyl)benzene-1,4-diamine [Compound 2]
monomer/oligomer Aβ
  monomer/oligomer Aβ expression in skin: decreased
[1]
  changes in appearance (hair loss): remarkable improvement in hair loss
SOX-9
  SOX-9 expression in skin: remarkably increased
[2]; at 3 days, compared with dementia control group
  mean escape latency: significantly short mean escape latency
[2]; at 4 days
  difference of mean escape latency, control group vs experimental group: 16 s
  mean escape latency: 26 ± 1 s
[2]; at 5 days
  difference of mean escape latency, dementia group vs treated group: 19 s
  mean escape latency: 24 ± 1 s
SOX-2
  SOX-2 expression in skin: remarkably expressed close to the normal group

— patent US20190091168A1, “FORMULATION FOR ENHANCED TRANSDERMAL ABSORPTION OF DRUG” (UNIST(ULSAN NATIONAL INSTITUTE OF SCIENCE AND TECHNOLOGY), priority 2017, published 2019)
